{"source": "paper PMC10333392", "about": "(Molecular Imaging and Biology, 2023)", "key": {"[1]": {"molecular_target": "T1, NMDA receptor glycine site (Rattus norvegicus, UniProt P35439)", "T1 construct": "from tissue; host or cells: Wistar rat forebrain synaptic membranes", "test": "[^3H]glycine competition binding, rat forebrain membranes", "details": "radioligand [^3H]-glycine"}, "Kaïnate receptor": {"molecular_target": "Kaïnate receptor", "type": "binding, rat"}, "NMDA PCP site": {"molecular_target": "T2, NMDA PCP site (Rattus norvegicus, UniProt P35439)", "T2 construct": "from tissue; host or cells: Wistar rat hippocampus, frontal cortex or forebrain synaptic membranes", "test": "[^3H]TCP radioligand competition binding on rat brain membranes", "details": "for IC50: inhibition of [^3H]TCP binding"}, "[2]": {"molecular_target": "T3, Dopaminergic receptor (D2) (Rattus norvegicus, UniProt P61169)", "T3 construct": "from tissue; host or cells: Wistar rat brain synaptic membranes (striatum according to the earlier reading)", "T3 sequence (P61169 whole entry)": "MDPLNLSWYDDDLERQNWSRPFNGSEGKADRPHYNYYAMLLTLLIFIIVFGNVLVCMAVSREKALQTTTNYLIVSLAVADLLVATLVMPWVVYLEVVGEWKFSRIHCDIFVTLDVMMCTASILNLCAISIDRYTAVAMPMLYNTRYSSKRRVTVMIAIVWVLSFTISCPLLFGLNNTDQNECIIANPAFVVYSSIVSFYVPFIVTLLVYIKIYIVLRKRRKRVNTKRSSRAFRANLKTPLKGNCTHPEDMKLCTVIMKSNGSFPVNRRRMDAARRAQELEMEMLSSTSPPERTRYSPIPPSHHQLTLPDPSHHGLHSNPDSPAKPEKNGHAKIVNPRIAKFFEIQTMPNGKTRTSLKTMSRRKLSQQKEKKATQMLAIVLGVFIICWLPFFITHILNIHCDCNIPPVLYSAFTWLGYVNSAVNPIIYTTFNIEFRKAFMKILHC", "test": "[^3H]raclopride competition binding, rat striatum membranes", "details": "radioligand [^3H]-raclopride"}, "AMPA receptor": {"molecular_target": "AMPA receptor", "test": "[^3H]AMPA competition binding, rat forebrain membranes", "details": "radioligand [^3H]-AMPA"}, "[3]": {"molecular_target": "T4, Dopaminergic receptor (D1) (Rattus norvegicus, UniProt P18901)", "T4 construct": "from tissue; host or cells: Wistar rat brain synaptic membranes (striatum according to the earlier reading)", "T4 sequence (P18901 whole entry)": "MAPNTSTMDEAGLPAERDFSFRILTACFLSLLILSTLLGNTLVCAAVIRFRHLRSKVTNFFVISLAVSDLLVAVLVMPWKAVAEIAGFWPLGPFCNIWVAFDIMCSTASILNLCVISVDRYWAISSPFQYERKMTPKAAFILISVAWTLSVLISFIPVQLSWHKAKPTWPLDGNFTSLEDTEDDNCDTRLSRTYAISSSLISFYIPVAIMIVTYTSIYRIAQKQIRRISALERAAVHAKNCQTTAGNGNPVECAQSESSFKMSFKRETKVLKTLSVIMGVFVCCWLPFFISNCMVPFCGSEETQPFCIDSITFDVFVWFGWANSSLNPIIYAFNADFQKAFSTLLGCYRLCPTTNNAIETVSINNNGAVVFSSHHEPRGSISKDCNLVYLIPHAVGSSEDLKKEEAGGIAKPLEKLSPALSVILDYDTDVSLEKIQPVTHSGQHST", "test": "[^3H]SCH23390 competition binding, rat striatum membranes", "details": "radioligand [^3H]-SCH23390"}, "[4]": {"details": "read-out: IC50 ± SEM ([^19F]FNM inhibition)"}}, "note": "“Also recorded” adds a separate entry of the source."}
{"substance": "Fluoroethylnormemantine [[^19F]FNM]", "values": [{"measurement": "IC50 ± SEM ([^19F]FNM inhibition)", "setting": "[1]", "value": "did not displace; also recorded: No inhibition"}, {"measurement": "IC50 ± SEM ([^19F]FNM inhibition)", "setting": "Kaïnate receptor", "value": "did not displace; also recorded: No inhibition"}, {"measurement": "selectivity for the NMDA receptor ion-channel compared to the other targets examined", "setting": "NMDA PCP site; in the forebrain", "value": "at least sevenfold"}, {"measurement": "IC50", "setting": "NMDA PCP site; rat forebrain", "value": "13 ± 8.9", "unit": "µM"}, {"measurement": "IC50", "setting": "NMDA PCP site; rat frontal cortex", "value": "80.8 ± 15.1", "unit": "µM"}, {"measurement": "IC50", "setting": "NMDA PCP site; rat hippocampus", "value": "52.9 ± 9.7", "unit": "µM"}, {"measurement": "IC50 ± SEM ([^19F]FNM inhibition)", "setting": "[2]", "value": "did not displace"}, {"measurement": "IC50", "setting": "[2]; [4]", "value": "> 1000", "unit": "µM"}, {"measurement": "IC50 ± SEM ([^19F]FNM inhibition)", "setting": "AMPA receptor", "value": "did not displace; also recorded: No inhibition"}, {"measurement": "IC50 ± SEM ([^19F]FNM inhibition)", "setting": "[3]", "value": "did not displace"}, {"measurement": "IC50", "setting": "[3]; [4]", "value": "> 1000", "unit": "µM"}]}
